Reference: publication PMC4207771, “Identification and Characterization of Novel Renal Sensory Receptors” (PLoS ONE, 2014)
Read-outs that look alike come from different tables or passages of the source.

What was measured:
Olfr691 = molecular target: T1, Olfr691 (Mus musculus, UniProt Q8VGW5); experiment: dual-luciferase (cAMP/CREB reporter) ligand screen, Olfr691 in HEK293T cells; format: cell-based; conditions: for Olfr691 response in dual-luciferase assay: chemicals tested individually, screened at 500uM (* also at 100uM); for Relative response (% of 4-pentenoate response) at 500 µM: HEK-293T, 4 h, 0.5 mM ligand, normalized to the response of Olfr691 to the strongest ligand
T1 construct: Lucy (N); expressed in transfected cells; host or cells: HEK293T, co-transfected with RTP1S
T1 sequence (Q8VGW5 1-322): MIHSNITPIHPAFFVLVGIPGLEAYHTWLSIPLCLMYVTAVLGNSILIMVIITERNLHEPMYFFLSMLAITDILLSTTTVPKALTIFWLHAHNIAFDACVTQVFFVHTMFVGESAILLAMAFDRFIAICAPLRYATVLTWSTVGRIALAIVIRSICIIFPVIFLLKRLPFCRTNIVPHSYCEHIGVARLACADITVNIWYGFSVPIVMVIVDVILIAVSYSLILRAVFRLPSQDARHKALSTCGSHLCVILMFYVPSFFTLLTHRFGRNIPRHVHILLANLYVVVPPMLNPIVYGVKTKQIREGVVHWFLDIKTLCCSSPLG

Olfr99 = experiment: dual-luciferase (cAMP/CREB reporter) ligand screen, Olfr99 in HEK293T cells; format: cell-based, mouse; set-up: key: ‘+’ or ‘–‘ in each column indicates if the olfactory receptor responded or had no effect to that specific chemical; -: ‘+’ or ‘–‘ in each column indicates if the olfactory receptor responded or had no effect to that specific chemical; conditions: chemicals tested individually, screened at 500uM (* also at 100uM)
Olfr31 = molecular target: T2, Olfr31 (Mus musculus, UniProt Q3KPA7); experiment: dual-luciferase (cAMP/CREB reporter) ligand screen, Olfr31 in HEK293T cells; format: cell-based; conditions: chemicals tested individually, screened at 500uM (* also at 100uM)
T2 construct: expressed in transfected cells; host or cells: HEK293T, co-transfected with RTP1S
T2 sequence (Q3KPA7 1-317): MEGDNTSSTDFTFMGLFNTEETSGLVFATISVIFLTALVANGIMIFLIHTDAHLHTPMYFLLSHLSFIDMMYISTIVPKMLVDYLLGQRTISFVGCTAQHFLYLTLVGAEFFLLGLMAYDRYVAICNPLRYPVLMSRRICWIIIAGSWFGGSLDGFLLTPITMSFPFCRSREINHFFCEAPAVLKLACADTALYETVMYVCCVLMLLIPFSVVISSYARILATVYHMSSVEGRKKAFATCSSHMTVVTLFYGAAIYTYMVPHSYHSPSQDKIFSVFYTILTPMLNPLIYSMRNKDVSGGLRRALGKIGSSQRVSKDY

Olfr693 = experiment: dual-luciferase (cAMP/CREB reporter) ligand screen, Olfr693 in HEK293T cells; format: cell-based, mouse; set-up: key: ‘+’ or ‘–‘ in each column indicates if the olfactory receptor responded or had no effect to that specific chemical; -: ‘+’ or ‘–‘ in each column indicates if the olfactory receptor responded or had no effect to that specific chemical; conditions: chemicals tested individually, screened at 500uM (* also at 100uM)
Olfr545 = experiment: dual-luciferase (cAMP/CREB reporter) ligand screen, Olfr545 in HEK293T cells; format: cell-based, mouse; set-up: key to Olfr545 response in dual-luciferase assay: ‘+’ or ‘–‘ in each column indicates if the olfactory receptor responded or had no effect to that specific chemical; -: ‘+’ or ‘–‘ in each column indicates if the olfactory receptor responded or had no effect to that specific chemical; conditions: chemicals tested individually, screened at 500uM (* also at 100uM)

Olfr691 response in dual-luciferase assay (Olfr691)	Olfr31 response in dual-luciferase assay (Olfr31)	Olfr691 response (in words) (Olfr691; luciferase assay, co-expressed with RTP1S)	Relative response (% of 4-pentenoate response) at 500 µM (Olfr691) [%]	EC50 (Olfr691; Olfr691 co-expressed with RTP1S in HEK293T cells, 10 µM to 7.5 mM) [mM]	SMILES	Olfr99 response in dual-luciferase assay (Olfr99)	Olfr693 response in dual-luciferase assay (Olfr693)	Olfr545 response in dual-luciferase assay (Olfr545)	Olfr691 response (in words) (Olfr691)
-	-	not including			CC(=O)O [acetic acid]	-	-	-	
+	-		55 ± 2.5		CCCC(=O)O [butyrate]	-	-	-	
-	-				Cn1c(=O)c2c(ncn2C)n(C)c1=O [caffeine, reference compound]	-	-	-	
-	-				O=C(O)CC(O)(CC(=O)O)C(=O)O [citric acid]	-	-	-	
+	-		39 ± 3		C/C=C/C(=O)O [crotonic acid]	-	-	-	
-	-				CCCCCCCCCCCC(=O)O [dodecanoic acid]	-	-	-	
+	-		41 ± 2.1		CCCCCCC(=O)O [heptanoate]	-	-	-	
+	-		97 ± 10.8	1.13	CC(C)C(=O)O [isobutyrate]	-	-	-	
+	-		37 ± 2.7		CC(C)CCC(=O)O [isocaproate]	-	-	-	
-	-				CC(C)[C@H](N)C(=O)O [l-valine]	-	-	-	
-	-				CC(O)C(=O)O (stereo not drawn) [lactic acid]	-	-	-	
-	-				C=CC(C)(O)CCC=C(C)C (stereo not drawn) [linalool]	-	-	-	
-	-				CC1(C)C2CCC(=O)C1C2 (stereo not drawn) [nopinone]	-	-	-	

The next lines start with the compound.

SMILES	Olfr691 response in dual-luciferase assay (Olfr691)	Olfr31 response in dual-luciferase assay (Olfr31)	Olfr691 response (in words) (Olfr691; luciferase assay, co-expressed with RTP1S)	Relative response (% of 4-pentenoate response) at 500 µM (Olfr691) [%]	EC50 (Olfr691; Olfr691 co-expressed with RTP1S in HEK293T cells, 10 µM to 7.5 mM) [mM]	Olfr99 response in dual-luciferase assay (Olfr99)	Olfr693 response in dual-luciferase assay (Olfr693)	Olfr545 response in dual-luciferase assay (Olfr545)	Olfr691 response (in words) (Olfr691)
O=c1[nH]c(=O)c2[nH]c(=O)[nH]c2[nH]1 [Uric acid]	-	-				-	-	-	
C=CCSCC=C [allyl sulfide]	-	-				-	-	-	
CCCCCOC(C)=O [amyl acetate]	-	-				-	-	-	
O=Cc1ccccc1 [benzaldehyde]	-	-				-	-	-	
O=C(O)c1ccccc1 [benzoate]	+	-		34 ± 1		-	-	-	induced Olfr691 responses
CCCCCC(=O)O [caproate]	+	-		80 ± 1.4		-	-	-	
O=C/C=C/c1ccccc1 [cinnamaldehyde]	-	-				-	-	-	
OC1CCCCCC1 [cycloheptanol]	-	-				-	-	-	
O=C1CCCCC1 [cyclohexanone]	-	-				-	-	-	
CCOC(=O)c1ccccc1 [ethyl benzoate]	-	-				-	-	-	
C=CCc1ccc(O)c(OC)c1 [eugenol]	-	-				-	-	-	
N[C@@H](CCC(=O)O)C(=O)O [l-glutamate]	-	-				-	-	-	
CC(=O)c1c(C)c([N+](=O)[O-])c(C(C)(C)C)c([N+](=O)[O-])c1C [musk ketone]	-	-				-	-	-	
CCCCCCCCC=O [nonanal]	-	-				-	-	-	
CCCCCCCCC(=O)O [nonanoic acid]	-	-				-	-	-	
O=C1CC2CC[C@H]1C2 [norcamphor]	-	-				-	-	-	
CCCCCCCC(=O)O [octanoic acid]	+	-		20 ± 0.9		-	-	-	responds
